Test results reported in PubChem BioAssay AID504877 (The Scripps Research Institute Molecular Screening Center, 2011).
“And” between values parts separate entries of the source, which are not always exact repeats. Identical values can stand only once. The source made the active and inactive calls. How the calls were made is not given here.

Target: Sphingosine 1-phosphate receptor 4 (Homo sapiens) (UniProt O95977)
Assay: S1P4 receptor agonist potency, late-stage follow-up, cell-based, fluorescence, dose response, synthesized compounds set 2 (AID 504877)
Conditions: S1P4 cell-based agonist assay, fluorescence read-out

SMILES | EC50 (run 1) | EC50 (run 2) | EC50 (run 3)
CN=C1S/C(=C/c2cc(C)n(-c3cc(C)ccc3OC)c2C)C(=O)N1C | > 50000 nM (inactive) | > 50000 nM (inactive) | > 50000 nM (inactive)
CCN=C1S/C(=C/c2ccn(-c3ccc(F)cc3F)c2)C(=O)N1CC | inactive | > 50000 nM (inactive) | 5390 nM
CN=C1NC(=O)/C(=C\c2cc(C)n(-c3cccc(F)c3)c2C)S1 | > 50000 nM (inactive) | > 50000 nM (inactive) | > 50000 nM (inactive)
Cc1cc(/C=C2\SC(=Nc3ccccc3)NC2=O)c(C)n1-c1ccccc1F | > 50000 nM (inactive) | > 50000 nM (inactive) | > 50000 nM (inactive)
CN=C1S/C(=C/c2cc(C)n(-c3ccc(Cl)cc3F)c2C)C(=O)N1C | 432 nM | 686 nM | 202 nM
C/N=C1/SC(=Cc2cc(C)n(Cc3ccc(F)cc3F)c2C)C(=O)N1C | 84.7 nM | 195 nM | 161 nM
CN=C1S/C(=C\c2ccn(-c3ccccc3F)c2)C(=O)N1C | > 50000 nM (inactive) | > 50000 nM (inactive) | > 50000 nM (inactive)
Cc1cc(/C=c2\sc3n(c2=O)CCCN=3)c(C)n1-c1ccccc1F | > 50000 nM (inactive) | > 50000 nM (inactive) | > 50000 nM (inactive)
CN=C1S/C(=C\c2ccn(Cc3ccccc3)c2)C(=O)N1C | > 50000 nM (inactive) | > 50000 nM (inactive) | > 50000 nM (inactive)
CN=C1NC(=O)/C(=C\c2cc(C)n(-c3ccccc3F)c2C)S1 | 5380 nM | 4530 nM | 942 nM
Cc1cc(/C=C2\SC(=NC(C)C)N(C(C)C)C2=O)c(C)n1-c1ccccc1F | > 50000 nM (inactive) | > 50000 nM (inactive) | > 50000 nM (inactive)
CN=C1S/C(=C/c2cc(C)n(-c3ccc(F)cc3F)c2C)C(=O)N1C | 113 nM | 199 nM | 317 nM
CN=C1S/C(=C\c2cc(C)n(-c3ccc(F)cc3F)c2C)C(=O)N1CCOC | 1580 nM | 1.85 nM | 
COCCN=C1S/C(=C\c2cc(C)n(-c3ccc(F)cc3F)c2C)C(=O)N1C | 37.7 nM and 51.4 nM | 79.1 nM | 

Continued, values first:

EC50 (run 1) | EC50 (run 2) | EC50 (run 3) | SMILES
5310 nM | inactive | 918 nM | CCN=C1S/C(=C/c2cc(C)n(-c3ncccc3F)c2C)C(=O)N1CC
75.3 nM | 133 nM | 104 nM | CCN=C1S/C(=C/c2cc(C)n(-c3ccc(F)cc3F)c2C)C(=O)N1CC
158 nM | 212 nM | 102 nM | CCN=C1S/C(=C/c2cc(C)n(-c3ccccn3)c2C)C(=O)N1CC
274 nM | 663 nM | 285 nM | CC/N=C1/SC(=Cc2cc(C)n(Cc3ccccc3OC)c2C)C(=O)N1CC
635 nM | 705 nM | 465 nM | CCN=C1S/C(=C\c2cc(C)n(-c3ccccc3)c2C)C(=O)N1CC
> 50000 nM (inactive) | > 50000 nM (inactive) | inactive | CCN=C1S/C(=C\c2ccn(-c3ccccc3F)c2)C(=O)N1CC
> 50000 nM (inactive) | > 50000 nM (inactive) | > 50000 nM (inactive) | CN=C1S/C(=C\c2cc(C)n(-c3ccccc3Br)c2C)C(=O)N1C
490 nM | 733 nM | 370 nM | CCN=C1S/C(=C/c2cc(C)n(-c3ccc(Cl)cc3F)c2C)C(=O)N1CC
inactive | > 50000 nM (inactive) | inactive | CCN=C1S/C(=C/c2cc(C)n(C(C)c3ccccc3)c2C)C(=O)N1CC (stereo not drawn)
> 50000 nM (inactive) | > 50000 nM (inactive) | 8960 nM | Cc1cc(/C=C2\SC(=O)N(C)C2=O)c(C)n1-c1ccccc1F
203 nM | 454 nM | 130 nM | CN=C1S/C(=C/c2cc(C)n(Cc3ccccc3)c2C)C(=O)N1C
> 50000 nM (inactive) | > 50000 nM (inactive) | inactive | CN=C1S/C(=C/c2cc(C)n(-c3ccccc3C)c2C)C(=O)N1C
> 50000 nM (inactive) | > 50000 nM (inactive) | > 50000 nM (inactive) | CCN=C1S/C(=C\c2cc(C)n(Cc3ccccc3F)c2C)C(=O)N1CC
> 50000 nM (inactive) | > 50000 nM (inactive) | inactive | COCCN=C1S/C(=C\c2cc(C)n(Cc3ccccc3)c2C)C(=O)N1CCOC
598 nM | 703 nM | 154 nM | CCN=C1S/C(=C/c2cc(C)n(Cc3ccccc3)c2C)C(=O)N1CC
116 nM | 268 nM | 368 nM | CCN=C1S/C(=C\c2cc(C)n(-c3ccccc3F)c2C)C(=O)N1CC
